System: 883617-216-R-J1-PDC complex spheroid viability
Test: Anticancer human tumor 883617-216-R-J1-PDC patient-derived bladder carcinoma cell line growth inhibition [POLQ]
Conditions: for IC50: curve of first compound; for viability, T/C: stronger effect = lower value
Experimental: Multicellular complex tumor spheroid response to Polymerase (POL) inhibitors (novobiocin, ART-558, RP6685) in combination with a variety of drugs and investigational agents in selected tumor cell lines
The POL inhibitors (novobiocin, ART-558, and RP6685) were evaluated both individually and in combination with standard of care and investigational anticancer small molecules within a complex spheroid model of solid tumors. . Complex spheroids include a stromal component modeled by human endothelial cells (HUVEC) and fibroblasts modeled by human mesenchymal stem cells (MSCs). The concentration ranges selected for each drug and investigational agent were based upon clinically achievable concentrations if the clinical Cmax of the agent was known.
Compounds. The drugs and investigational agents: novobiocin (NSC847541), ART-558 (NSC835418), RP-6685 (NSC848927), peposertib (NSC802822), ceralasertib (NSC780249), elimusertib (NSC800525), camonsertib (NSC841442), AZD-1390 (NSC803789), olaparib (NSC753686), talazoparib (NSC767125), rucaparib (NSC756644), sotorasib (NSC818433), MRTX-1133 (NSC836407), SN-38 (NSC673596), topotecan (NSC609699), epotoside (NSC141540), doxorubicin (NSC123127), gemcitabine (NSC613327), 5-fluorouracil (NSC19893), paclitaxel (NSC125973), vemurafenib (NSC761431), MSA-2 (NSC828583), SN-011 (NSC837082), adavosertib (NSC754352), prexasertib (NSC758257), carboplatin (NSC241240) and oxaliplatin (NSC266046), were obtained from the National Cancer Institute (NCI) Developmental Therapeutics Program Chemical Repository (21). The FDA-approved anticancer drug set is available from the Developmental Therapeutics Program at https://dtp.cancer.gov/organization/dscb/obtaining/. […] The stock solutions were prepared in dimethyl sulfoxide (DMSO, Sigma-Aldrich, St. Louis, MO, cat. D2650), except for the platinum compounds which were prepared in saline (Quality Biological, Gaithersburg, MD, cat. 114-055-101), at 800-fold the tested concentration and stored at -70 degrees C prior to their use. All drugs and investigational agents were tested over a range starting from a high concentration at or near the clinical Cmax and decreasing in half-log increments. If the clinical Cmax for an agent had not been determined, the highest concentration tested was 10 microM, except for SN-38, which was tested at a high concentration of 1 microM.
Cell Culture. All cells were maintained in an incubator at 37 degrees C and 5% CO2 with 95% humidity. The PDC lines were cultured according to standard operating procedures established by the NCI PDMR (https://pdmr.cancer.gov). Table 3 of the manuscript, lists the cell lines along with the number of the three cell types plated to form the mct-spheroids and media for tumor cell growth. After thawing, all PDC lines, except 997537-175-T-J1-PDC and 415267-285-R-J2-PDC, were cultured in Matrigel-coated flasks prepared with a working solution of 1X Ham's F-12 nutrient mix, without supplementation (Thermo Fisher Scientific, cat. 11765054), 100 U/mL penicillin-streptomycin (Thermo Fisher Scientific, cat. 15140122), and 2.5% Matrigel (Corning Inc., Corning, NY, cat. 354248) for the first three passages. The two PDC lines 997537-175-T-J1-PDC and 415267-285-R-J2-PDC were cultured on uncoated flasks. The 857933-349-R-J2-PDC line was cultured in 6C/Colon 1B media containing advanced DMEM/F-12 (Thermo Fisher Scientific, cat. 12634028), 10 mM HEPES (Thermo Fisher Scientific, cat. 15630080), 1X GlutaMAX supplement (Thermo Fisher Scientific, cat. 35050061), 0.1 mg/mL primocin (InvivoGen, San Diego, CA, cat. ant-pm-2), 10% defined fetal bovine serum, heat inactivated (HyClone Laboratories Inc., Logan, UT, cat. SH30070.03HI), 50% L-WRN conditioned media (ATCC, cat. CRL-3276), 1.25 mM N-Acetyl-L-cysteine (Sigma-Aldrich, cat. A9165), 10 mM nicotinamide (Sigma-Aldrich, cat. N0636), 1X B-27 supplement (Thermo Fisher Scientific, cat. 17504044), 1X N-2 supplement (Thermo Fisher Scientific, cat. […]

[1] = second compound 0.0316 µM, first compound 0.0316 µM
[2] = second compound 0.0316 µM, first compound 0.1 µM
[3] = second compound 0.0316 µM, first compound 0.316 µM
[4] = second compound 0.0316 µM, first compound 1 µM
[5] = second compound 0.0316 µM, first compound 3.16 µM
[6] = second compound 0.0316 µM, first compound 10 µM
[7] = second compound 0.1 µM, first compound 0.0316 µM
[8] = second compound 0.1 µM, first compound 0.1 µM
[9] = second compound 0.1 µM, first compound 0.316 µM
[10] = second compound 0.1 µM, first compound 1 µM
[11] = second compound 0.1 µM, first compound 3.16 µM
[12] = second compound 0.1 µM, first compound 10 µM
[13] = second compound 0.316 µM, first compound 0.0316 µM
[14] = second compound 0.316 µM, first compound 0.1 µM
[15] = second compound 0.316 µM, first compound 0.316 µM
[16] = second compound 0.316 µM, first compound 1 µM
[17] = second compound 0.316 µM, first compound 3.16 µM
[18] = second compound 0.316 µM, first compound 10 µM
[19] = second compound 1 µM, first compound 0.0316 µM
[20] = second compound 1 µM, first compound 0.1 µM
[21] = second compound 1 µM, first compound 0.316 µM
[22] = second compound 1 µM, first compound 1 µM
[23] = second compound 1 µM, first compound 3.16 µM
[24] = second compound 1 µM, first compound 10 µM
[25] = second compound 3.16 µM, first compound 0.0316 µM
[26] = second compound 3.16 µM, first compound 0.1 µM
[27] = second compound 3.16 µM, first compound 0.316 µM
[28] = second compound 3.16 µM, first compound 1 µM
[29] = second compound 3.16 µM, first compound 3.16 µM
[30] = second compound 3.16 µM, first compound 10 µM
[31] = second compound 10 µM, first compound 0.0316 µM
[32] = second compound 10 µM, first compound 0.1 µM
[33] = second compound 10 µM, first compound 0.316 µM
[34] = second compound 10 µM, first compound 1 µM
[35] = second compound 10 µM, first compound 3.16 µM
[36] = second compound 10 µM, first compound 10 µM
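Also: spheroids exposed to compounds for seven days before readout.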
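For viability, T/C in this document: 100% = DMSO vehicle control viability.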

For `COc1ccc([C@@H](O)c2cc(-c3ncnc4cc(N5CCOCC5)ccc34)c(F)cc2Cl)nn1` + Nc1ccc(C#CCN(C(=O)Cc2ncc(C(F)(F)F)cc2C(F)(F)F)c2ccc(F)cc2)nn1, the IC50 (second compound 0.0316 µM) was 2810 nM, the IC50 (second compound 0.1 µM) was 2800 nM and the IC50 (second compound 0.316 µM) was 2660 nM. It also gave an IC50 (second compound 1 µM) of 3410 nM, an IC50 (second compound 3.16 µM) of 2870 nM and an IC50 (second compound 10 µM) of 2500 nM. It also gave a viability, T/C [1] of 104%, a viability, T/C [2] of 92.5% and a viability, T/C [3] of 90.1%. It also gave a viability, T/C [4] of 66.7%, a viability, T/C [5] of 48% and a viability, T/C [6] of 36.6%. It also gave a viability, T/C [7] of 75.6%, a viability, T/C [8] of 97.9% and a viability, T/C [9] of 84.6%. It also gave a viability, T/C [10] of 63.2%, a viability, T/C [11] of 51.9% and a viability, T/C [12] of 33.1%. The viability, T/C [13] was 108%, the viability, T/C [14] was 99.7% and the viability, T/C [15] was 84.3%. It also gave a viability, T/C [16] of 62.8%, a viability, T/C [17] of 49.8% and a viability, T/C [18] of 31.4%. For the same molecule, the viability, T/C [19] was 94.8%, the viability, T/C [20] was 89.3% and the viability, T/C [21] was 77.9%. The viability, T/C [22] was 68.2%, the viability, T/C [23] was 50% and the viability, T/C [24] was 35.9%. The viability, T/C [25] was 96.3%, the viability, T/C [26] was 102% and the viability, T/C [27] was 90.8%. The viability, T/C [28] was 68.3%, the viability, T/C [29] was 50.6% and the viability, T/C [30] was 37.1%. The viability, T/C [31] was 108%, the viability, T/C [32] was 103% and the viability, T/C [33] was 101%. The viability, T/C [34] was 75.5%, the viability, T/C [35] was 43.6% and the viability, T/C [36] was 32.6%.
With `CC1COCCN1c1cc(-c2ccnn2C)c2ccnc(-c3ccn[nH]3)c2n1` (centres undefined) + Nc1ccc(C#CCN(C(=O)Cc2ncc(C(F)(F)F)cc2C(F)(F)F)c2ccc(F)cc2)nn1 the IC50 (second compound 0.0316 µM) was 292 nM, the IC50 (second compound 0.1 µM) was 408 nM and the IC50 (second compound 0.316 µM) was 479 nM. For the same molecule, the IC50 (second compound 1 µM) was 422 nM, the IC50 (second compound 3.16 µM) was 572 nM and the IC50 (second compound 10 µM) was 482 nM. For the same molecule, the viability, T/C [1] was 76.9%, the viability, T/C [2] was 65.1% and the viability, T/C [3] was 48%. For the same molecule, the viability, T/C [4] was 35.7%, the viability, T/C [5] was 36.3% and the viability, T/C [6] was 25.3%. The viability, T/C [7] was 73.1%, the viability, T/C [8] was 59.3% and the viability, T/C [9] was 59.1%. It also gave a viability, T/C [10] of 33.6%, a viability, T/C [11] of 32.6% and a viability, T/C [12] of 24.9%. It also gave a viability, T/C [13] of 75.4%, a viability, T/C [14] of 58.4% and a viability, T/C [15] of 59%. For the same molecule, the viability, T/C [16] was 41.4%, the viability, T/C [17] was 34.9% and the viability, T/C [18] was 26%. For the same molecule, the viability, T/C [19] was 68.2%, the viability, T/C [20] was 60.5% and the viability, T/C [21] was 51.7%. The viability, T/C [22] was 41.7%, the viability, T/C [23] was 44.8% and the viability, T/C [24] was 34.8%. The viability, T/C [25] was 70.9%, the viability, T/C [26] was 61.3% and the viability, T/C [27] was 56.1%. The viability, T/C [28] was 44%, the viability, T/C [29] was 39.1% and the viability, T/C [30] was 28.9%. The viability, T/C [31] was 84.5%, the viability, T/C [32] was 70% and the viability, T/C [33] was 59.5%. The viability, T/C [34] was 35.4%, the viability, T/C [35] was 40.1% and the viability, T/C [36] was 34.4%.

Reference: PubChem BioAssay AID1963833 (Molecular Pharmacology Branch, DTP, NCI, 2024)
